Measured values taken from US11147272B2, “Pyridone compounds and agricultural and horticultural fungicides comprising the same as active ingredients” (MITSUI CHEMICALS AGRO, INC., priority 2017, dated 2021).

Assays:
Magnaporthe grisea = assay: whole plant or invertebrate; type: in vivo; details: Blast on rice; class of control value
Alternaia brassicicola = assay: Test Example C: Alternaria sooty spot on cabbage; type: in vivo; details: Alternaria sooty spot on cabbage; class of control value
From the text: Seeds of a test plant (cabbage variety: Shikidori) were planted and cultivated until the cotyledons extended.
<Control Value> Control value=100{1−(n/3)}

Puccinia recondita = assay: Test Example E: Brown rust on wheat; type: in vivo; details: Brown rust on wheat; class of control value
Phytophthora infestans = assay: whole plant or invertebrate; type: in vivo; details: Late blight on tomato; class of control value
Botrytis cinerea = assay: Test Example B: Gray mold on tomato; details: Gray mold on tomato; class of control value
Plasmopara viticola = assay: Test Example G: Downy mildew on vine; details: Downy mildew on vine (Neomuscat); 250 ppm spray, 2.5 ml/pot; assessed 7 to 10 days after inoculation
[1] = system: Colletotrichum orbiculare; assay: Test Example H: Anthracnose on cucumber; details: Anthracnose on cucumber (Sagami Hanjiro); 250 ppm spray, 2.5 ml/pot; assessed 6 to 10 days after inoculation
[2] = system: Blumeria graminis f. sp. hordei; assay: Test Example D: Powdery mildew on barley; details: Powdery mildew on barley; class of control value

| SMILES | Test A control value class (Magnaporthe grisea) | Test C control value class (Alternaia brassicicola) | Test E control value class (Puccinia recondita) | Test F control value class (Phytophthora infestans) | Test B control value class (Botrytis cinerea) | Test G control value class (Plasmopara viticola) | Test H control value class [1] | Test D control value class [2] |
| --- | --- | --- | --- | --- | --- | --- | --- | --- |
| CCn1c(-c2ccc(Br)cc2F)c(CC(C)C)cc(Cl)c1=O [compound 143] | H (more than 50% control value) | H (more than 50% control value) | H (more than 50% control value) | L (50% or less control value) | H (more than 50% control value) | H (more than 50% control value) | H (more than 50% control value) | H (more than 50% control value) |
| CCn1c(-c2ccc(F)cc2)c(CC(C)C)ccc1=O [compound 144] | L (50% or less control value) | H (more than 50% control value) | H (more than 50% control value) | L (50% or less control value) | L (50% or less control value) | H (more than 50% control value) | L (50% or less control value) | H (more than 50% control value) |
| CC(C)Cc1ccc(=O)n(C)c1-c1ccc(F)cc1 [compound 145] | L (50% or less control value) | H (more than 50% control value) | H (more than 50% control value) | L (50% or less control value) | L (50% or less control value) | L (50% or less control value) | L (50% or less control value) | L (50% or less control value) |
| CCn1c(-c2ccc(C)cc2F)c(CC(C)C)cc(Cl)c1=O [compound 146] | H (more than 50% control value) | H (more than 50% control value) | H (more than 50% control value) | L (50% or less control value) | H (more than 50% control value) | H (more than 50% control value) | L (50% or less control value) | H (more than 50% control value) |
| CCn1c(-c2ccc(C)cc2F)c(CC(C)C)cc(Br)c1=O [compound 147] | H (more than 50% control value) | H (more than 50% control value) | H (more than 50% control value) | L (50% or less control value) | H (more than 50% control value) | H (more than 50% control value) | L (50% or less control value) | H (more than 50% control value) |
| CCn1c(-c2ccc(F)cc2)c(CC(C)C)cc(Br)c1=O [compound 148] | H (more than 50% control value) | H (more than 50% control value) | H (more than 50% control value) | L (50% or less control value) | H (more than 50% control value) | H (more than 50% control value) | H (more than 50% control value) | H (more than 50% control value) |
| CCn1c(-c2ccc(F)cc2)c(CC(C)C)cc(Cl)c1=O [compound 149] | H (more than 50% control value) | H (more than 50% control value) | H (more than 50% control value) | L (50% or less control value) | H (more than 50% control value) | H (more than 50% control value) | H (more than 50% control value) | H (more than 50% control value) |
| CCn1c(-c2c(F)cc(F)cc2F)c(C(C)(C)O)cc(Cl)c1=O [compound 150] | H (more than 50% control value) | H (more than 50% control value) | H (more than 50% control value) | L (50% or less control value) | H (more than 50% control value) | H (more than 50% control value) | H (more than 50% control value) | H (more than 50% control value) |
| CCN(Cc1cc(Cl)c(=O)n(CC)c1-c1c(F)cc(F)cc1F)OC [compound 151] | H (more than 50% control value) | H (more than 50% control value) | H (more than 50% control value) | L (50% or less control value) | H (more than 50% control value) | H (more than 50% control value) | H (more than 50% control value) | H (more than 50% control value) |
| CCN(Cc1cc(Cl)c(=O)n(CC)c1-c1c(F)cc(OC)cc1F)OC [compound 152] | H (more than 50% control value) | H (more than 50% control value) | H (more than 50% control value) | L (50% or less control value) | H (more than 50% control value) | H (more than 50% control value) | H (more than 50% control value) | H (more than 50% control value) |
| CCn1c(-c2c(F)cc(OC)cc2F)c(C(C)(O)CC(C)C)cc(Cl)c1=O (centres unmarked) [compound 153] | L (50% or less control value) | H (more than 50% control value) | H (more than 50% control value) | L (50% or less control value) | H (more than 50% control value) | H (more than 50% control value) | H (more than 50% control value) | H (more than 50% control value) |
| CCn1c(-c2c(F)cc(F)cc2F)c(C(C)(O)CC(C)C)cc(Cl)c1=O (centres unmarked) [compound 154] | H (more than 50% control value) | H (more than 50% control value) | H (more than 50% control value) | L (50% or less control value) | H (more than 50% control value) | H (more than 50% control value) | H (more than 50% control value) | H (more than 50% control value) |
| CC(C)Cc1cc(Cl)c(=O)n(C)c1-c1ccc(F)cc1 [compound 155] | L (50% or less control value) | H (more than 50% control value) | H (more than 50% control value) | L (50% or less control value) | H (more than 50% control value) | H (more than 50% control value) | L (50% or less control value) | H (more than 50% control value) |
| CC(C)Cc1cc(Br)c(=O)n(C)c1-c1ccc(F)cc1 [compound 156] | H (more than 50% control value) | H (more than 50% control value) | H (more than 50% control value) | L (50% or less control value) | H (more than 50% control value) | L (50% or less control value) | L (50% or less control value) | H (more than 50% control value) |
| CCn1c(-c2ccc(Cl)cc2F)c(CC(C)C)ccc1=O [compound 157] | H (more than 50% control value) | H (more than 50% control value) | H (more than 50% control value) | L (50% or less control value) | H (more than 50% control value) | H (more than 50% control value) | L (50% or less control value) | H (more than 50% control value) |
| CCn1c(-c2ccc(Cl)cc2F)c(CC(C)C)cc(Cl)c1=O [compound 158] | H (more than 50% control value) | H (more than 50% control value) | H (more than 50% control value) | L (50% or less control value) | H (more than 50% control value) | H (more than 50% control value) | H (more than 50% control value) | H (more than 50% control value) |
